Assay results: patent US8664210B2, “Aminooxime derivatives of 2- and/or 4-substituted androstanes and androstenes as medicaments for cardiovascular disorders” (priority 2007, dated 2014)

Columns and labels:
[1] = biological target: Dog Kidney Na+, K+-ATPase (Canis lupus familiaris, UniProt P50997); test: Dog kidney Na+,K+-ATPase inhibition (hydrolysis of 32P-ATP); format: biochemical
anesthetized guinea-pig = test: inotropic effect and lethal dose in anesthetized guinea-pig (infusion over 90 minutes); format: in vivo; details: anesthetized guinea-pig, infusion over 90 min
Protocol: The inotropic activity is shown as maximum increase in contractile force (Emax measured as +dP/dTmax), dose inducing maximum positive inotropic effect (EDmax), inotropic potency (ED80, dose increasing +dP/dTmax by 80%); the toxicity as the ratio between lethal dose and inotropic potency (calculated in the died animals). All animals, previously anesthetized, were administered the drug through infusion over a 90 minute period.

Na+,K+-ATPase = Na+,K+-ATPase (Canis lupus familiaris, UniProt P50997); details: relative to compound 22b; cited from earlier work

In the case of `C[C@@H]1/C(=N/OCCN)CC[C@@]2(C)C1C(=O)C[C@@H]1[C@@H]2CC[C@]2(C)C(=O)CC[C@@H]12.Cl` (stereo partly drawn) [Compd. 22d, (E)-3-(2-aminoethoxyimino)-4α-methylandrostan-6,17-dione hydrochloride], the IC50 [1] is reported as 6 µM, the Dead/treated (anesthetized guinea-pig) is reported as 0/3 and the “ED80 (inotropic potency, dose increasing +dP/dTmax by 80%)” value (anesthetized guinea-pig) is reported as 23.0 µmol/kg. For the same molecule, the “EDmax (dose inducing maximum positive inotropic effect)” value (anesthetized guinea-pig) was 149 µmol/kg, the “Emax % increase in +dP/dTmax (maximum increase in contractile force)” value (anesthetized guinea-pig) was 190% and the Maximum dose infused (anesthetized guinea-pig) was 250.3 µmol/kg. The “Notes (toxic signs during infusion)” value (anesthetized guinea-pig; hydrochloride) was “tremors and contractions appeared during the infusion” and the “times less active than des-methyl compound 22b” value (Na+,K+-ATPase) was 30.
